This passage reports IC50 results from patent US20240351988A1, “ARYL HYDROCARBON RECEPTOR MODULATORS AND THEIR USE IN THE TREATMENT OF DISEASES AND DISORDERS” (Allianthera (Suzhou) Biopharmaceutical Co., Ltd., priority 2021, published 2024).

Each structure is given as a SMILES string.

The target in this test is T1, Human Aryl Hydrocarbon Receptor (AhR) (Homo sapiens, UniProt P35869).
T1 construct: purchased INDIGO Bioscience #1B06001-32; host or cells: AhR Reporter Cell (kit's proprietary reporter cells)
T1 sequence (P35869 11-848): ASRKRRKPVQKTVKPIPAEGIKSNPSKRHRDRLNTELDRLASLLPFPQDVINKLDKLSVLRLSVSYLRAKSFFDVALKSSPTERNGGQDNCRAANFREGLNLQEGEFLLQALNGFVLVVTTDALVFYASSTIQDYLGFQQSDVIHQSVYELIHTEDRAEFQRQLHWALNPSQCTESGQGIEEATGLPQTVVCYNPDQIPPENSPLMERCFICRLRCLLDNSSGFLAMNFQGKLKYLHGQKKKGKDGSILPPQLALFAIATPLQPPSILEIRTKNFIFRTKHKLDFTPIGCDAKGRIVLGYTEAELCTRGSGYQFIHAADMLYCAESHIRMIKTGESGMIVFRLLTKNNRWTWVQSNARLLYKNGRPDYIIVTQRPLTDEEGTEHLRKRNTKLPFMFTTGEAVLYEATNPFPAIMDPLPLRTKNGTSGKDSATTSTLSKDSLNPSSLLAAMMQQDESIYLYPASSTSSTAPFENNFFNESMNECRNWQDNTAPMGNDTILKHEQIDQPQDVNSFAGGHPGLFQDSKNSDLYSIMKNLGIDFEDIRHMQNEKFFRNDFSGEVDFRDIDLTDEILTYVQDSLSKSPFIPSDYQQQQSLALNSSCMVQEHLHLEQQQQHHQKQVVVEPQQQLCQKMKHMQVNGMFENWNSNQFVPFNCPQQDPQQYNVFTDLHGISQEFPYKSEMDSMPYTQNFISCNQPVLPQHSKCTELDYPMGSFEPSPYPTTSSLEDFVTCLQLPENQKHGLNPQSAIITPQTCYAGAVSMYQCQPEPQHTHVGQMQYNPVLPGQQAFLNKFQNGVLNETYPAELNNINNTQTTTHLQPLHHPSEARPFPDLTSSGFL
Description: AHR antagonist reporter assay in human cell line (INDIGO AhR Reporter Assay System, kynurenic acid activated). The class given is cell-based. Conditions: 200 μM kynurenic acid, 24 hours, luciferase; read-out: AhR Reporter Assay KA Antagonist Mode: IC50. The protocol:
The AhR reporter assay was performed following the protocol of the Human Aryl Hydrocarbon Receptor (AhR) Reporter Assay System (INDIGO Bioscience, #1B06001-32). AhR Reporter Cell was thawed and pre-incubated in Cell Recovery Medium (CRM) for 6 hours. The media was then removed and the cells were incubated with Compound Screening Medium (CSM) supplemented with 200 μM kynurenic acid for 24 hours in the absence (negative control) or presence of increasing concentrations of test compounds (typical dilution: […], 3.2 nM, 16 nM, 80 nM, 400 nM, 2 μM, 10 μM in duplicates). For positive inhibition control, cells activated with 200 μM kynurenic acid were incubated in the presence of literature AHR antagonists; alternatively un-activated cells were used as positive inhibition control. Following 24 hours incubation, the media was removed and Luciferase Detection Reagent (LDR) added. The firefly luciferase activity was quantified using a plate reader. Results were normalized by positive and negative controls.

Take `COC[C@H](C)NC(=O)c1cc(N2CC3(CCCCC3)C2)nn(-c2cnn(C)c2)c1=O` [Compound 117]: the IC50 was greater than 400 nM.
With `COC[C@H](C)NC(=O)c1cc(-c2ccccc2Cl)nn(-c2cnn(C)c2)c1=O` [Compound 118] the figure was greater than 400 nM; with `COC[C@H](C)NC(=O)c1cc(C2CCC(C)(C)CC2)nn(-c2cnn(C)c2)c1=O` [Compound 119], greater than 400 nM.
With `COC[C@H](C)NC(=O)c1cc(-c2cc3cccnc3cc2F)nn(-c2cnn(C)c2)c1=O` [Compound 121] the figure was greater than 400 nM; with `COC[C@H](C)NC(=O)c1cc(-c2ccc3ccc(OC)nc3c2)nn(-c2cnn(C)c2)c1=O` [Compound 122], greater than 400 nM.
For `COC[C@H](C)NC(=O)c1cc(-c2ccc3oc(C)nc3c2)nn(-c2cnn(C)c2)c1=O` [Compound 124], the IC50 is greater than 400 nM.
With `COC[C@H](C)NC(=O)c1cc(N2C[C@H]3CCCC[C@H]3C2)nn(-c2cnn(C)c2)c1=O` [Compound 125] the figure was less than 100 nM.
With `COC[C@H](C)NC(=O)c1cc(-c2ccc3ncccc3c2)nn(-c2cnn(C)c2)c1=O` [Compound 126] the figure was greater than 400 nM; with `COC[C@H](C)NC(=O)c1cc(N2CCC(C)(C)CC2)nn(-c2cnn(C)c2)c1=O` [Compound 127], greater than 400 nM; with `COC[C@H](C)NC(=O)c1cc(-c2ccc3c(c2)OCCO3)nn(-c2cnn(C)c2)c1=O` [Compound 128], greater than 400 nM.
Consider `COC[C@H](C)NC(=O)c1cc(-c2ccc3c(C)ccnc3c2)nn(-c2cnn(C)c2)c1=O` [Compound 129], for which the IC50 was greater than 400 nM.
With `COC[C@H](C)NC(=O)c1cc(-c2ccc3cccnc3c2F)nn(-c2cnn(C)c2)c1=O` [Compound 130] the figure was 100 to 400 nM.
With `COC[C@H](C)NC(=O)c1cc(-c2ccc3nc(N)ccc3c2)nn(-c2cnn(C)c2)c1=O` [Compound 131] the figure was greater than 400 nM; with `COC[C@H](C)NC(=O)c1cc(-c2ccc3sc(C)nc3c2)nn(-c2cnn(C)c2)c1=O` [Compound 132], greater than 400 nM; with `COC[C@H](C)NC(=O)c1cc(-c2ccc3cnccc3c2)nn(-c2cnn(C)c2)c1=O` [Compound 133], greater than 400 nM.
With `COC[C@H](C)NC(=O)c1cc(N2C(=O)C(C)(C)c3ccccc32)nn(-c2cnn(C)c2)c1=O` [Compound 134] the figure was greater than 400 nM; with `COC[C@H](C)NC(=O)c1cc(-n2cc(C)c(C)n2)nn(-c2cnn(C)c2)c1=O` [Compound 135], greater than 400 nM.
For `COC[C@H](C)NC(=O)c1cc(-n2cc(C(F)(F)F)cn2)nn(-c2cnn(C)c2)c1=O` [Compound 136], the IC50 was greater than 400 nM.
With `COC[C@H](C)NC(=O)c1cc(-n2ccc(C3CC3)n2)nn(-c2cnn(C)c2)c1=O` [Compound 137] the figure was greater than 400 nM; with `COC[C@H](C)NC(=O)c1cc(-n2ccc(C(F)(F)F)n2)nn(-c2cnn(C)c2)c1=O` [Compound 138], greater than 400 nM.
With `COC[C@H](C)NC(=O)c1cc(-c2ccc3c(c2)OCO3)nn(-c2cnn(C)c2)c1=O` [Compound 140] the figure was greater than 400 nM; with `COC[C@H](C)NC(=O)c1cc(-c2ccc3c(c2)N(C)CC3)nn(-c2cnn(C)c2)c1=O` [Compound 141], greater than 400 nM.
For the compound `COC[C@H](C)NC(=O)c1cc(-n2ccc(-c3ccc(Cl)cc3)n2)nn(-c2cnn(C)c2)c1=O` [Compound 142], the IC50 was less than 100 nM.
Take `COC[C@H](C)NC(=O)c1cc(-n2nc(C(F)(F)F)cc2C)nn(-c2cnn(C)c2)c1=O` [Compound 143]: the IC50 is greater than 400 nM.
In the case of `COC[C@H](C)NC(=O)c1cc(-c2cc(F)c3ncccc3c2F)nn(-c2cnn(C)c2)c1=O` [Compound 144], the IC50 is greater than 400 nM.
With `COC[C@H](C)NC(=O)c1cc(N2CCC3(CCCCC3)C2)nn(-c2cnn(C)c2)c1=O` [Compound 145] the figure was greater than 400 nM; with `COC[C@H](C)NC(=O)c1cc(C2=CCC(C)CC2)nn(-c2cnn(C)c2)c1=O` (stereo partly shown) [Compound 149], less than 100 nM.
With `COC[C@H](C)NC(=O)c1cc(-n2ccc3ccccc32)nn(-c2cnn(C)c2)c1=O` [Compound 151] the figure was greater than 400 nM; with `COC[C@H](C)NC(=O)c1cc(C2CCC(C)CC2)nn(-c2cnn(C)c2)c1=O` (stereo partly shown) [Compound 152], greater than 400 nM.
With `COC[C@H](C)NC(=O)c1cc(-c2cc3c(O)ncnc3cc2F)nn(-c2cnn(C)c2)c1=O` [Compound 154] the figure was greater than 400 nM.
On to `COC[C@H](C)NC(=O)c1cc(-n2nnc3ccccc32)nn(-c2cnn(C)c2)c1=O` [Compound 158], for which the IC50 was greater than 400 nM.
Turning to `COC[C@H](C)NC(=O)c1cc(-n2nc3ccccc3n2)nn(-c2cnn(C)c2)c1=O` [Compound 159], the IC50 was in the range of 100 to 400 nM.
For `C[C@@H](CO)NC(=O)c1cc(-n2ccc(-c3ccc(Cl)cc3)n2)nn(-c2cnn(C)c2)c1=O` [Compound 162], the IC50 is less than 100 nM.
With `CN(C)C(=O)C(C)(C)NC(=O)c1cc(-c2ccc(C(F)(F)F)nc2)nn(-c2cnn(C)c2)c1=O` [Compound 166] the figure was greater than 400 nM; with `CNC(=O)C(C)(C)NC(=O)c1cc(-c2ccc(OC(F)(F)F)cc2)nn(-c2cnn(C)c2)c1=O` [Compound 174], 100 to 400 nM; with `C[C@H](NC(=O)c1cc(-c2ccc(C(=O)N(C)C)cc2)nn(-c2cccc(F)c2)c1=O)C(=O)N(C)C` [Compound 178], greater than 400 nM.
With `C[C@@H](CO)NC(=O)c1cc(-c2ccc(C(=O)N(C)C)cc2)nn(-c2cccc(F)c2)c1=O` [Compound 179] the figure was greater than 400 nM; with `CNC(=O)[C@H](C)NC(=O)c1cc(-c2ccc(C(=O)N(C)C)cc2)nn(-c2cccc(F)c2)c1=O` [Compound 180], less than 100 nM; with `C[C@H](NC(=O)c1cc(-c2cnc(-c3ccc(Cl)cc3)nc2)nn(-c2cnn(C)c2)c1=O)C(=O)N(C)C` [Compound 182], less than 100 nM.
With `C[C@@H](CO)NC(=O)c1cc(-c2cnc(-c3ccccc3)nc2)nn(-c2cnn(C)c2)c1=O` [Compound 187] the figure was less than 100 nM.
Consider `C[C@H](NC(=O)c1cc(-n2ncc(-c3ccc(Cl)cc3)n2)nn(-c2cnn(C)c2)c1=O)C(=O)N(C)C` [Compound 188], for which the IC50 is greater than 400 nM.
With `C[C@H](NC(=O)c1cc(-n2cc(-c3ccc(Cl)cc3)nn2)nn(-c2cnn(C)c2)c1=O)C(=O)N(C)C` [Compound 189] the figure was greater than 400 nM.
With `CNC(=O)[C@H](C)NC(=O)c1cc(-n2ncc(-c3ccc(Cl)cc3)n2)nn(-c2cnn(C)c2)c1=O` [Compound 190] the figure was greater than 400 nM.
As to `C[C@@H](CO)NC(=O)c1cc(-c2ccc(-c3ccc4ncccc4c3)nc2)nn(-c2cnn(C)c2)c1=O` [Compound 196], the IC50 was greater than 400 nM.
With `C[C@@H](CO)NC(=O)c1cc(N2CCN(c3ccccc3F)CC2)nn(-c2cnn(C)c2)c1=O` [Compound 209] the figure was less than 100 nM; with `C[C@@H](CO)NC(=O)c1cc(N2CCN(c3cccc(F)c3)CC2)nn(-c2cnn(C)c2)c1=O` [Compound 210], less than 100 nM.

In general, IC50 refers to the concentration needed to halve the response being measured.
